Assay results from patent publication US4849335A, “Method for detecting the mutagenicity of substances susceptible of inducing the deterioration of cellular DNA, utilizing the production of an SOS response” (priority 1982, dated 1989).

How the values were obtained:
Assay type in all cases: cell-based, E. coli strain PQ37
alkaline phosphatase = alkaline phosphatase activity in E. coli PQ37 culture; settings: FIG. 1 curve b; beyond a certain concentration of genotoxic substance; 2 hours
Description: (§1) The micro-organism employed in the tests whose description follows is a transformed E. coli strain, named PQ37, deposited in the National Collection of Culture Micro-Organisms (C.N.C.M.) of the Pasteur Institute of Paris, under no. I-205 on the date of Sept. 24, 1982. The genetic characteristics of this micro-organism are as follows: F^- thr leu his-4 pyrD thi galE galK or T lacΔUI69 srl 300::Tn10 rpoB rpsL uvrA rfa trp::Muc^+ sfiA::Mud(AP, lac)c-Ts. It is constitutive for the synthesis of the alkaline phosphatase (Pho^c). […]
(§2) A culture of the abovesaid micro-organism previously developed up to the exponential phase in LB culture medium (Bacto tryptone 10 g, Bacto yeast extract 5 g, NaC1 10 g, water Q.S.P. 1 1), also containing ampicillin, is diluted ten times either in fresh medium, or in the activation mixture described by AMES B.N. and Coll. […] After two hours incubation at 37° C. with shaking, the β-galoactosidase and alkaline phosphatase activities were determined.
It is possible in particular to carry out the determination of the alkaline phosphatase under the following condition: 2.7 ml of T buffer (solution of 121 g of Tris (hydroxy-methyl)-aminomethane per liter, whose pH has been adjusted to 8.8 with HC1) were added to 0.3 ml of the cell culture. […] 5 minutes later, 1 ml of 2 N Tris is added to restore the color, which is measured in the spectrophotometer at 420 nm. […]

β-galactosidase = β-galactosidase activity in E. coli PQ37 culture; settings: FIG. 1 curve a; beyond a certain concentration of genotoxic substance; 2 hours
Description: The micro-organism employed in the tests whose description follows is a transformed E. coli strain, named PQ37, deposited in the National Collection of Culture Micro-Organisms (C.N.C.M.) of the Pasteur Institute of Paris, under no. I-205 on the date of Sept. 24, 1982. The genetic characteristics of this micro-organism are as follows: F^- thr leu his-4 pyrD thi galE galK or T lacΔUI69 srl 300::Tn10 rpoB rpsL uvrA rfa trp::Muc^+ sfiA::Mud(AP, lac)c-Ts. It is constitutive for the synthesis of the alkaline phosphatase (Pho^c).
This strain has been obtained by genetic recombinations suitable to confer on it the above-indicated genotype, from the strain containing the recombinant sfiA::lacZ deposited at the C.N.C.M., under no. I-152 Apr. 13, 1981.
A culture of the abovesaid micro-organism previously developed up to the exponential phase in LB culture medium (Bacto tryptone 10 g, Bacto yeast extract 5 g, NaC1 10 g, water Q.S.P. 1 1), also containing ampicillin, is diluted ten times either in fresh medium, or in the activation mixture described by AMES B.N. and Coll. (1975), "Mutation Research" 31, 347-364. Aliquot parts of 0.6 ml are distributed in glass test tubes each containing a certain dose of the substance under test. After two hours incubation at 37° C. with shaking, the β-galoactosidase and alkaline phosphatase activities were determined. […]

[1] = test system: sfiA::operon lacZ recombinant; settings: FIG. 1 curve c; measured 2 hours after the start of the experiment; inhibitory concentrations
Description: FIGS. 2 and 3 contain the curves representing the variations of the logarithm of the abovesaid ratio, named below SOSIF (abbreviation of "SOS induction factor"), measurable in similar cultures, in the presence of different genotoxic substances, according to their respective concentrations in the culture media, in nanomoles per specimen tested.
as §1
as §2, with “determined. […]” for “determined.”

O=[N+]([O-])c1cc[n+]([O-])c2ccccc12 [4NQO, 4-nitroquinoline-1-oxide]
alkaline phosphatase activity (inhibiting effect of the synthesis of the proteins) (alkaline phosphatase): reduction
β-galactosidase activity (inhibiting effect of the synthesis of the proteins) (β-galactosidase): reduction
SOSIF ratio at concentrations of the genotoxic substance which inhibit the synthesis of the proteins [1]: remains substantially constant
